# Measurements from ChEMBL document CHEMBL1155626, “Metabolites of Colletotrichum gloeosporioides, an endophytic fungus in Artemisia mongolica” (2000).
# Assays:
# Format in all cases: functional
# Bacillus subtilis = test: Antimicrobial activity against Bacillus subtilis after 48 hrs by paper disk assay
# Staphylococcus aureus = test: Antimicrobial activity against Staphylococcus aureus after 48 hrs by paper disk assay
# Micrococcus luteus = test: Antimicrobial activity against Sarcina lutea after 48 hrs by paper disk assay
# Helminthosporium = test: Antimicrobial activity against Helminthosporium sativum after 96 hrs by paper disk assay
Structure (SMILES),MIC (Bacillus subtilis),MIC (Staphylococcus aureus),MIC (Micrococcus luteus),MIC (Helminthosporium)
COc1c(C)c(OC(=O)c2c(C)cc(O)cc2O)c(C)c(C(=O)Oc2cc(O)c(C(=O)O)c(C)c2C)c1C [COLLETOTRIC ACID],25 µg/mL,50 µg/mL,50 µg/mL,50 µg/mL
CC1(C)S[C@@H]2[C@H](NC(=O)[C@H](N)c3ccccc3)C(=O)N2[C@H]1C(=O)O [AMPICILLIN],0.05 µg/mL,–,0.01 µg/mL,–
CC(C)(C)C(=O)C(Oc1ccc(Cl)cc1)n1cncn1 (configuration not stated) [TRIADIMEFON],–,–,–,20 µg/mL
